Results on 23 molecules are retold here after patent US7238701B2, “Substituted tetrahydrobenzothienopyrimidinamine compounds useful for treating hyper-proliferative disorders” (Bayer Pharmaceuticals Corporation, priority 2003, dated 2007).

Structures are written as SMILES.

Test [1] has as its system A431cells (human epidermoid carcinoma). As to the kind of experiment: In vitro tumor cell proliferation assay (Cell Titer-Glo luminescent cell viability), A431 cells. The class given is cell-based. The conditions noted are these: A-431, 72 h, 72 hours drug exposure, 10% Fetal Bovine Serum, ATP luminescence readout, read-out: IC50 (50% inhibition of cell proliferation). From the text: (§1) In vitro Tumor Cell Proliferation Assay
(§2) The tumor cell proliferation assay used to test the compounds of the present invention involves a readout called Cell Titer-Glow® Luminescent Cell Viability Assay developed by Promega (Cunningham, B A “A Growing Issue: Cell Proliferation Assays, Modern kits ease quantification of cell growth” The Scientist 2001, 15(13), 26, and Crouch, S P et al., “The use of ATP bioluminescence as a measure of cell proliferation and cytotoxicity” Journal of Immunological Methods 1993, 160, 81–88), that measures inhibition of cell proliferation. Generation of a luminescent signal corresponds to the amount of ATP present, which is directly proportional to the number of metabolically active (proliferating) cells.
(§3) A431cells (human epidermoid carcinoma, ATCC # HTB-20) and BT474 (human breast carcinoma, ATCC # CRL-1555) were plated at a density of 2.5×10^3 cells/well in 96 well black-clear bottom tissue culture plates in RPMI media with 10% Fetal Bovine Serum and incubated at 37° C. Twenty-four hours later, test compounds are added at a final concentration range from as high 100 μM to as low 64 pM depend on the activities of the tested compounds in serial dilutions at a final DMSO concentration of 0.1%. Cells were incubated for 72 hours at 37° C. in complete growth media after addition of the test compound. After 72 hours of drug exposure, the plates were equilibrated to room temperature for approximately 30 min. Then, using a Promega Cell Titer Glo Luminescent® assay kit, lysis buffer containing 100 microliters of the enzyme luciferase and its substrate, luciferin mixture, was added to each well. The plates were mixed for 2 min on orbital shaker to ensure cell lysis and incubated for 10 min at room temperature to stabilize luminescence signal. The samples were read on VICTOR 2 using Luminescence protocol, and analyzed with Analyze5 software to generate IC50 values.
A general note: ATP-based viability assays read luminescence as a measure of living cells.

Test [2] deals with BT474 (human breast carcinoma). As to the kind of experiment: In vitro tumor cell proliferation assay (Cell Titer-Glo luminescent cell viability), BT474 cells. The class given is cell-based. The note with it: BT-474, 72 hours drug exposure, 10% Fetal Bovine Serum, ATP luminescence readout, read-out: IC50 (50% inhibition of cell proliferation).
Description: as §1, §2, §3

For `CS(=O)(=O)CCNCC1CCc2c(sc3ncnc(Nc4ccc(F)c(Cl)c4)c23)C1` (stereo not shown) [Example 55, N-(3-chloro-4-fluorophenyl)-7-({[2-(methylsulfonyl)ethyl]amino}methyl)-5,6,7,8-tetrahydro[1]benzothieno[2,3-d]pyrimidin-4-amine], the IC50 in test [1] was below 5 µM; in test [2] it was below 50 µM.
As to `OC1CCN(CCC2CCc3c(sc4ncnc(Nc5ccc6c(cnn6Cc6ccccc6)c5)c34)C2)C1` (stereo not shown) [Example 237, 1-(2-{4-[(1-benzyl-1H-indazol-5-yl)amino]-5,6,7,8-tetrahydro[1]benzothieno[2,3-d]pyrimidin-7-yl}ethyl)pyrrolidin-3-ol], the IC50 was below 50 µM in test [1] and below 5 µM in test [2].
In the case of `N#Cc1ccc(N2CCN(C(=O)C3CCc4c(sc5ncnc(Nc6cccc(Br)c6)c45)C3)CC2)cc1` (stereo not shown) [Example 48, 4-[4-({4-[(3-bromophenyl)amino]-5,6,7,8-tetrahydro[1]benzothieno[2,3-d]pyrimidin-7-yl}carbonyl)-1-piperazinyl]benzonitrile], the IC50 in test [1] is below 50 µM; in test [2] it was below 5 µM.
For the molecule `OCCNCCC1CCc2c(sc3ncnc(Nc4ccc(OCc5ccccn5)c(Cl)c4)c23)C1` (stereo not shown) [Example 180, 2-{[2-(4-{[3-chloro-4-(pyridin-2-ylmethoxy)phenyl]amino}-5,6,7,8-tetrahydro[1]benzothieno[2,3-d]pyrimidin-7-yl)ethyl]amino}ethanol], the IC50 in test [1] was below 50 µM; in test [2], below 5 µM.
The matching figures for `c1ccc(Cn2ncc3cc(Nc4ncnc5sc6c(c45)CCC(CCNCCN4CCOCC4)C6)ccc32)cc1` (stereo not shown) [Example 209, N-(1-benzyl-1H-indazol-5-yl)-7-{2-[(2-morpholin-4-ylethyl)amino]ethyl}-5,6,7,8-tetrahydro[1]benzothieno[2,3-d]pyrimidin-4-amine]: below 5 µM and below 5 µM.
For `Fc1cccc(COc2ccc(Nc3ncnc4sc5c(c34)CCC(CCN3CCOCC3)C5)cc2Cl)c1` (stereo not shown) [Example 139, N-{3-chloro-4-[(3-fluorobenzyl)oxy]phenyl}-7-(2-morpholin-4-ylethyl)-5,6,7,8-tetrahydro[1]benzothieno[2,3-d]pyrimidin-4-amine], the IC50 in test [1] and in test [2] was below 5 µM each time.
With `COCCCNCCC1CCc2c(sc3ncnc(Nc4ccc(OCc5ccccn5)c(Cl)c4)c23)C1` (stereo not shown) [Example 195, N-[3-chloro-4-(pyridin-2-ylmethoxy)phenyl]-7-{2-[(3-methoxypropyl)amino]ethyl}-5,6,7,8-tetrahydro[1]benzothieno[2,3-d]pyrimidin-4-amine], the IC50 in test [1] and in test [2] was below 5 µM each time.
Regarding `CS(=O)(=O)CCNCCC1CCc2c(sc3ncnc(Nc4ccc5c(cnn5Cc5ccccc5)c4)c23)C1` (stereo not shown) [Example 210, N-(1-benzyl-1H-indazol-5-yl)-7-(2-{[2-(methylsulfonyl)ethyl]amino}ethyl)-5,6,7,8-tetrahydro[1]benzothieno[2,3-d]pyrimidin-4-amine], the IC50 in test [1] and in test [2] was below 5 µM throughout.
For the molecule `O=C(C1CCc2c(sc3ncnc(Nc4ccc(F)c(Cl)c4)c23)C1)N1CCCCC1` (stereo not shown) [Example 3, N-(3-chloro-4-fluorophenyl)-7-(1-piperidinylcarbonyl)-5,6,7,8-tetrahydro[1]benzothieno[2,3-d]pyrimidin-4-amine], the IC50 in test [1] and in test [2] was below 50 µM in each case.
As to `OCCC1CCc2c(sc3ncnc(Nc4cccc(Br)c4)c23)C1` (stereo not shown) [Example 102, 2-{4-[(3-bromophenyl)amino]-5,6,7,8-tetrahydro[1]benzothieno[2,3-d]pyrimidin-7-yl}ethanol], the IC50 in test [1] and in test [2] was below 50 µM in each case.
On to `Fc1cccc(COc2ccc(Nc3ncnc4sc5c(c34)CCC(CCNCCN3CCOCC3)C5)cc2Cl)c1` (stereo not shown) [Example 166, N-{3-chloro-4-[(3-fluorobenzyl)oxy]phenyl}-7-{2-[(2-morpholin-4-ylethyl)amino]ethyl}-5,6,7,8-tetrahydro[1]benzothieno[2,3-d]pyrimidin-4-amine], for which the IC50 in test [1] is below 50 µM; in test [2], below 5 µM.
On to `CN(C)C1CCN(CCC2CCc3c(sc4ncnc(Nc5ccc6c(cnn6Cc6ccccc6)c5)c34)C2)C1` (stereo not shown) [Example 207, N-(1-benzyl-1H-indazol-5-yl)-7-{2-[3-(dimethylamino)pyrrolidin-1-yl]ethyl}-5,6,7,8-tetrahydro[1]benzothieno[2,3-d]pyrimidin-4-amine], for which the IC50 in test [1] and in test [2] was below 5 µM in each case.
For `CN1CCN(CCC2CCc3c(sc4ncnc(Nc5ccc6c(cnn6Cc6ccccc6)c5)c34)C2)CC1` (stereo not shown) [Example 227, N-(1-benzyl-1H-indazol-5-yl)-7-[2-(4-methylpiperazin-1-yl)ethyl]-5,6,7,8-tetrahydro[1]benzothieno[2,3-d]pyrimidin-4-amine], the IC50 in test [1] was below 50 µM; in test [2], below 5 µM.
The matching figures for `OCCC1CCc2c(sc3ncnc(Nc4ccc(OCc5cccc(F)c5)c(Cl)c4)c23)C1` (stereo not shown) [Example 137, 2-{4-[3-Chloro-4-(3-fluoro-benzyloxy)-phenylamino]-5,6,7,8-tetrahydro-benzo[4,5]thieno[2,3-d]pyrimidin-7-yl}-ethanol]: below 50 µM and below 5 µM.
For the molecule `O=C(CC1CCc2c(sc3ncnc(Nc4ccc(F)c(Cl)c4)c23)C1)N1CCCCC1` (stereo not shown) [Example 67, N-(3-chloro-4-fluorophenyl)-7-[2-oxo-2-(1-piperidinyl)ethyl]-5,6,7,8-tetrahydro[1]benzothieno[2,3-d]pyrimidin-4-amine], the figures for the IC50 in test [1] and in test [2] were below 50 µM and below 5 µM, respectively.
The matching figures for `COCCN(C)C(=O)CC1CCc2c(sc3ncnc(Nc4ccc(OCc5ccc(F)cc5)c(Cl)c4)c23)C1` (stereo not shown) [Example 151, 2-[4-({3-chloro-4-[(4-fluorobenzyl)oxy]phenyl}amino)-5,6,7,8-tetrahydro[1]benzothieno[2,3-d]pyrimidin-7-yl]-N-(2-methoxyethyl)-N-methylacetamide]: below 50 µM and below 50 µM.
The matching figures for `CS(=O)(=O)CCNCCC1CCc2c(sc3ncnc(Nc4ccc(OCc5ccccn5)c(Cl)c4)c23)C1` (stereo not shown) [Example 178, N-[3-chloro-4-(pyridin-2-ylmethoxy)phenyl]-7-(2-{[2-(methylsulfonyl)ethyl]amino}ethyl)-5,6,7,8-tetrahydro[1]benzothieno[2,3-d]pyrimidin-4-amine]: below 5 µM and below 5 µM.
The matching figures for `Brc1cccc(Nc2ncnc3sc4c(c23)CCC(CCn2ccnc2)C4)c1` (stereo not shown) [Example 88, N-(3-bromophenyl)-7-[2-(1H-emidazol-1-yl)ethyl]-5,6,7,8-tetrahydro[1]benzothieno[2,3-d]pyrimidin-4-amine]: below 5 µM and below 5 µM.
In the case of `CN1CCN(C(=O)CC2CCc3c(sc4ncnc(Nc5ccc(F)c(Cl)c5)c34)C2)CC1` (stereo not shown) [Example 58, N-(3-chloro-4-fluorophenyl)-7-[2-(4-methyl-1-piperazinyl)-2-oxoethyl]-5,6,7,8-tetrahydro[1]benzothieno[2,3-d]pyrimidin-4-amine], the IC50 in test [1] and in test [2] was below 5 µM each time.
As for `COCCNC(=O)CC1CCc2c(sc3ncnc(Nc4cccc(Br)c4)c23)C1` (stereo not shown) [Example 82, 2-{4-[(3-bromophenyl)amino]-5,6,7,8-tetrahydro[1]benzothieno[2,3-d]pyrimidin-7-yl}-N-(2-methoxyethyl)acetamide], the IC50 in test [1] and in test [2] was below 5 µM in each case.
With `OCCC1CCc2c(sc3ncnc(Nc4ccc(OCc5ccccn5)c(Cl)c4)c23)C1` (stereo not shown) [Example 174, 2-{4-[3-Chloro-4-(pyridin-2-ylmethoxy)-phenylamino]-5,6,7,8-tetrahydro-benzo[4,5]thieno[2,3-d]pyrimidin-7-yl}-ethanol], the IC50 is below 50 µM in test [1] and below 5 µM in test [2].
The matching figures for `CN1CCN(CCC2CCc3c(sc4ncnc(Nc5ccc(OCc6cccc(F)c6)c(Cl)c5)c34)C2)CC1` (stereo not shown) [Example 158, N-{3-chloro-4-[(3-fluorobenzyl)oxy]phenyl}-7-[2-(4-methylpiperazin-1-yl)ethyl]-5,6,7,8-tetrahydro[1]benzothieno[2,3-d]pyrimidin-4-amine]: below 5 µM and below 5 µM.
The matching figures for `c1ccc(Cn2ncc3cc(Nc4ncnc5sc6c(c45)CCC(CCN4CCCCC4)C6)ccc32)cc1` (stereo not shown) [Example 239, (1-Benzyl-1H-indazol-5-yl)-[7-(2-piperidine-1-yl-ethyl)-5,6,7,8-tetrahydro-benzo[4,5]thieno[2,3-d]pyrimidin-4-yl]-amine]: below 50 µM and below 5 µM.
